What was measured:
[1] = target: T1, AuroraB (Homo sapiens, UniProt Q96GD4); assay: AuroraB Homogeneous Time Resolved Fluorescent (HTRF) kinase assay; type: biochemical; conditions: average; read-out: AurB_IC50_IP (uM Avg)
T1 construct: 20 μL of AuroraB FL H is for a final volume of 41 μL; His
Method: AuroraB-Homogeneous Time Resolved Fluorescent (HTRF) Kinase Assay:
The AuroraB HTRF assay begins with AuroraB in the presence of ATP phosphorylating the biotinylated peptide Histone H3. The reaction incubates for about 90 min. the reaction is quenched by addition of detection reagents, which stop the reaction by diluting out the enzyme and chelating the metals due to the presence of EDTA. After addition, the assay is incubated for about 60 min to allow detection reagents to equilibrate.
The AuroraB HTRF assay comprises 1 μL of compound in 100% DMSO, 20 μL of ATP and biotinylated Histone H3, and 20 μL of AuroraB FL H is for a final volume of 41 μL. The final concentration of Histone H3 is 0.1 μM. […] Buffer conditions are as follows: 50 mM HEPES pH 7.5, 5 mM NaCl, 0.5 mM MgCl, 0.5 mM MnCl, 2 mM DTT, 0.05% BSA.
(§1) The assay is quenched and stopped with 160 μL of detection reagent. Detection reagents are as follows: Buffer made of 50 mM Tris, pH 7.5, 100 mM NaCl, 3 mM EDTA, 0.05% BSA, 0.1% Tween20. Added to this buffer prior to reading is Steptavidin allophycocyanin (SA-APC) at a final conc in the assay of 0.001 mg/mL, and europilated anti-phosphoHistoneH3 Ab (Eu-anti-HisH3) at a final conc of 0.064 nM.
The assay plate is read in either a Discovery or a RubyStar. The eu-anti-HisH3 is excited at 320 nm and emits at 615 nm to excite the SA-APC which in turn emits at 655 nm.

[2] = target: T2, AuroraA-TPX2 (Homo sapiens, UniProt O14965); assay: AuroraA-TPX2 Homogeneous Time Resolved Fluorescent (HTRF) kinase assay; type: biochemical; conditions: average; read-out: AurA_IC50_IP (uM Avg)
T2 construct: 20 μL of AuroraA-TPX2 KD GST for a final volume of about 41 μL; GST
T2 sequence (O14965 133-383 limits assumed): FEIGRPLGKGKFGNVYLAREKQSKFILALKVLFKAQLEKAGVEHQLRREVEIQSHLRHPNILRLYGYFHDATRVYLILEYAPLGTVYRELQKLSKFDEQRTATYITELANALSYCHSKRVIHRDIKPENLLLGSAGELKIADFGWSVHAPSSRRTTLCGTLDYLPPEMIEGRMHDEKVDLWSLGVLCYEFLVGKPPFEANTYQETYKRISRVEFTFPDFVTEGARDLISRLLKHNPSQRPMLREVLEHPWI
T2 sequence (Q9ULW0 1-43 partner limits assumed): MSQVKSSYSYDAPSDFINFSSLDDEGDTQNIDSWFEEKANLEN
Method: AuroraA-TPX2-Homogeneous Time Resolved Fluorescent (HTRF) Kinase Assay:
The Aurora-A HTRF assay begins with Aurora-A in the presence of ATP phosphorylating the biotinylated peptide PLK. The reaction incubates for about 120 min. Detection reagents are added to quench the reaction. These agents stop the reaction by diluting out the enzyme and chelating the metals due to the presence of EDTA. After addition, the assay is incubated overnight to allow the detection reagents to equilibrate.
The AuroraA HTRF assay comprises 1 μL of compound in 100% DMSO, 20 μL of ATP and biotinylated PLK, and 20 μL of AuroraA-TPX2 KD GST for a final volume of about 41 μL. The final concentration of PLK is about 1 μM. […] Buffer conditions are as follows: 60 mM HEPES pH 7.5, 25 mM NaCl, 10 mM MgCl, 2 mM DTT, 0.05% BSA.
as §1, with “0.0005” for “0.001”, “anti-phosphoPLK” for “anti-phosphoHistoneH3”, “(Eu-anti-PLK)” for “(Eu-anti-HisH3)”, “0.02” for “0.064”
The assay plate is read in either a Discovery or a RubyStar. The eu-anti-PLK is excited at 320 nm and emits at 615 nm to excite the SA-APC which in turn emits at 655 nm.

T1 sequence (Q96GD4 whole entry): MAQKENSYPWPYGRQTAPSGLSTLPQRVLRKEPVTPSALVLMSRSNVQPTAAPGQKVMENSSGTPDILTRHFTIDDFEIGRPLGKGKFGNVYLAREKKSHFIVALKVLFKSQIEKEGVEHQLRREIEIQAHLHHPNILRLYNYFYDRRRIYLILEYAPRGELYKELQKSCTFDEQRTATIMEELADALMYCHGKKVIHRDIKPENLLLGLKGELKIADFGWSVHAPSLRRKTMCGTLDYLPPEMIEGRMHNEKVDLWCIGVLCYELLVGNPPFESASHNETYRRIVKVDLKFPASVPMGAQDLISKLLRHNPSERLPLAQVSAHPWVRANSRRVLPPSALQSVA

**Q.** Which results are given for `N#Cc1cnc2c(Oc3ccc(Nc4nnc(-c5ccccc5)c5ccccc45)cc3)ccnc2c1` [Example 44, 8-(4-(4-phenylphthalazin-1-ylamino)phenoxy)-1,5-naphthyridine-3-carbonitrile]?
**A.** IC50 [1]: 0.015 µM; IC50 [2]: 0.332 µM

**Q.** Which results are given for `Cn1cc(-c2ccc3nccc(Oc4ccc(Nc5nnc(-c6ccccc6)c6ccccc56)cc4)c3c2)cn1` [Example 45, N-(4-(6-(1-Methyl-1H-pyrazol-4-yl)quinolin-4-yloxy)phenyl)-4-phenylphthalazin-1-amine]?
**A.** IC50 [1]: 0.03 µM; IC50 [2]: 0.079 µM

**Q.** `NC(=O)c1cc2nccc(Oc3ccc(Nc4nnc(-c5ccccc5)c5ccccc45)cc3)c2s1` [Example 46, 7-(4-(4-phenylphthalazin-1-ylamino)phenoxy)thieno[3,2-b]pyridine-2-carboxamide] was tested. Which IC50 [1] did it give?
**A.** 0.001 µM

**Q.** What about the IC50 [2] of the same molecule?
**A.** 0.015 µM

**Q.** What does the source list for `COc1ccc(F)cc1-c1nnc(Nc2ccc(Oc3ccnc4cc(C(N)=O)ccc34)cc2)c2ccccc12` [Example 47, 4-(4-(4-(5-fluoro-2-methoxyphenyl)phthalazin-1-ylamino)phenoxy)quinoline-7-carboxamide]?
**A.** IC50 [1]: 0.138 µM; IC50 [2]: 5 µM

**Q.** For `FC(F)Oc1cnc2c(Sc3ccc(Nc4nnc(-c5ccccc5)c5ccccc45)cc3)ccnc2c1` [Example 387, N-(4-(7-(difluoromethoxy)-1,5-naphthyridin-4-ylthio)phenyl)-4-phenylphthalazin-1-amine], which IC50 [1] is on record?
**A.** 0.048 µM

**Q.** And the IC50 [2]?
**A.** 0.135 µM

**Q.** `Oc1ccc2nccc(Sc3ccc(Nc4nnc(-c5ccc(Cl)cc5)c5ccccc45)cc3)c2c1` [Example 388, 4-(4-(4-(4-Chlorophenyl)phthalazin-1-ylamino)phenylthio)quinolin-6-ol] was tested. Which IC50 [1] did it give?
**A.** 0.003 µM

**Q.** And the IC50 [2]?
**A.** 0.02 µM

**Q.** For `COCCOCCOc1ccc2nccc(Sc3ccc(Nc4nnc(-c5ccc(Cl)cc5)c5ccccc45)cc3)c2c1` [Example 389, 4-(4-Chlorophenyl)-N-(4-(6-(2-(2-methoxyethoxy)ethoxy)quinolin-4-ylthio)phenyl)phthalazin-1-amine], which IC50 [1] is on record?
**A.** 0.022 µM

**Q.** And the IC50 [2]?
**A.** 0.021 µM

**Q.** With `CS(=O)(=O)CCOc1ccc2nccc(Sc3ccc(Nc4nnc(-c5ccc(Cl)cc5)c5ccccc45)cc3)c2c1` [Example 390, 4-(4-Chlorophenyl)-N-(4-(6-(2-(methylsulfonyl)ethoxy)quinolin-4-ylthio)phenyl)phthalazin-1-amine] as the molecule, how does the IC50 [1] read?
**A.** > 125 µM

**Q.** What about the IC50 [2] of the same molecule?
**A.** > 125 µM

**Q.** What does the source list for `Clc1ccc(-c2nnc(Nc3ccc(Sc4ccnc5ccoc45)cc3)c3ccccc23)nc1` [Example 391, 4-(5-Chloropyridin-2-yl)-N-(4-(furo[3,2-b]pyridin-7-ylthio)phenyl)phthalazin-1-amine]?
**A.** IC50 [1]: 0.018 µM; IC50 [2]: 0.601 µM

**Q.** What does the source list for `COc1cc2nccc(Oc3ccc(Nc4nnc(-c5ccccc5)c5ccccc45)cc3)c2cc1C#N` [Example 392, 7-Methoxy-4-(4-(4-phenylphthalazin-1-ylamino)phenoxy)quinoline-6-carbonitrile]?
**A.** IC50 [1]: 0.26 µM; IC50 [2]: 0.159 µM

**Q.** Which results are given for `COCCOc1cc2nccc(Oc3ccc(Nc4nnc(-c5ccccc5)c5ccccc45)cc3)c2cc1OC` [Example 393, N-(4-(6-Methoxy-7-(2-methoxyethoxy)quinolin-4-yloxy)phenyl)-4-phenylphthalazin-1-amine]?
**A.** IC50 [1]: 0.017 µM; IC50 [2]: 0.013 µM

**Q.** `COc1cnc2c(Oc3ccc(Nc4nnc(-c5ccc(Cl)c(OCCS(C)(=O)=O)c5)c5ccccc45)cc3)ccnc2c1` [Example 394, 4-(4-Chloro-3-(2-(methylsulfonyl)ethoxy)phenyl)-N-(4-(7-methoxy-1,5-naphthyridin-4-yloxy)phenyl)phthalazin-1-amine] was tested. Which IC50 [1] did it give?
**A.** 0.009 µM

**Q.** What about the IC50 [2] of the same molecule?
**A.** 0.015 µM

**Q.** With `COCCOc1cc(-c2nnc(Nc3ccc(Oc4ccnc5cc(OC)cnc45)cc3)c3ccccc23)ccc1C` [Example 395, N-(4-(7-Methoxy-1,5-naphthyridin-4-yloxy)phenyl)-4-(3-(2-methoxyethoxy)-4-methylphenyl)phthalazin-1-amine] as the molecule, how does the IC50 [1] read?
**A.** 0.012 µM

**Q.** And the IC50 [2]?
**A.** 0.047 µM

**Q.** For `COc1cnc2c(Sc3ccc(Nc4nnc(-c5ccn(C)c(=O)c5)c5ccccc45)cc3)ccnc2c1` [Example 396, 4-(4-(4-(7-Methoxy-1,5-naphthyridin-4-ylthio)phenylamino)phthalazin-1-yl)-1-methylpyridin-2(1H)-one], which IC50 [1] is on record?
**A.** > 125 µM

**Q.** And the IC50 [2]?
**A.** 0.05 µM

**Q.** How did the IC50 [1] turn out when `Cc1ccc(-c2nnc(Nc3ccc(Sc4ccnc5ccoc45)cc3)c3ccccc23)cc1F` [Example 398, 4-(3-Fluoro-4-methylphenyl)-N-(4-(furo[3,2-b]pyridin-7-ylthio)phenyl)phthalazin-1-amine] was run?
**A.** 0.059 µM

**Q.** And the IC50 [2]?
**A.** 1.73 µM

**Q.** For `Nc1ccc2nccc(Sc3ccc(Nc4nnc(-c5ccccc5)c5ccccc45)cc3)c2c1` [Example 399, N-(4-(6-Aminoquinolin-4-ylthio)phenyl)-4-phenylphthalazin-1-amine], which IC50 [1] is on record?
**A.** 0.025 µM

**Q.** What about the IC50 [2] of the same molecule?
**A.** 0.286 µM

**Q.** Which results are given for `COc1cnc2c(Sc3ccc(Nc4nnc(C5=CCNCC5)c5ccccc45)cc3)ccnc2c1` [Example 401, N-(4-(7-Methoxy-1,5-naphthyridin-4-ylthio)phenyl)-4-(1,2,3,6-tetrahydropyridin-4-yl)phthalazin-1-amine]?
**A.** IC50 [1]: 0.052 µM; IC50 [2]: 0.847 µM

**Q.** How did the IC50 [1] turn out when `COc1cnc2c(Sc3ccc(Nc4nnc(OC)c5ccccc45)cc3)ccnc2c1` [Example 402, 4-Methoxy-N-(4-(7-methoxy-1,5-naphthyridin-4-ylthio)phenyl)phthalazin-1-amine] was run?
**A.** 0.015 µM

**Q.** What about the IC50 [2] of the same molecule?
**A.** 0.167 µM

**Q.** Which results are given for `COc1cnc2c(Sc3ccc(Nc4nnc(OCCC5CCCCN5)c5ccccc45)cc3)ccnc2c1` (centres unmarked) [Example 403, N-(4-(7-Methoxy-1,5-naphthyridin-4-ylthio)phenyl)-4-(2-(piperidin-2-yl)ethoxy)phthalazin-1-amine]?
**A.** IC50 [1]: 0.005 µM; IC50 [2]: 0.239 µM

**Q.** With `COc1cnc2c(Sc3ccc(Nc4nnc(C#N)c5ccccc45)cc3)ccnc2c1` [Example 404, 4-(4-(7-Methoxy-1,5-naphthyridin-4-ylthio)phenylamino)phthalazine-1-carbonitrile] as the molecule, how does the IC50 [1] read?
**A.** 0.009 µM

**Q.** And the IC50 [2]?
**A.** 0.447 µM

**Q.** Which IC50 [1] does the source give for `O=c1ccc2nccc(Sc3ccc(Nc4nnc(-c5ccc(Cl)cn5)c5ccccc45)cc3)c2[nH]1` [Example 405, 8-(4-(4-(5-Chloropyridin-2-yl)phthalazin-1-ylamino)phenylthio)-1,5-naphthyridin-2(1H)-one] here?
**A.** 0.007 µM

**Q.** What about the IC50 [2] of the same molecule?
**A.** 0.042 µM

**Q.** With `COc1cc2nccc(Sc3ccc(Nc4nnc(-c5ccc(Cl)cc5)c5ccccc45)cc3)c2[nH]c1=O` [Example 406, 8-(4-(4-(4-Chlorophenyl)phthalazin-1-ylamino)phenylthio)-3-methoxy-1,5-naphthyridin-2(1H)-one] as the molecule, how does the IC50 [1] read?
**A.** 0.186 µM

**Q.** And the IC50 [2]?
**A.** 0.034 µM

**Q.** How did the IC50 [1] turn out when `COc1cnc2c(Oc3ccc(Nc4nnc(-c5cc(CO)cs5)c5ccccc45)cc3)ccnc2c1` [Example 407, (5-(4-(4-(7-Methoxy-1,5-naphthyridin-4-yloxy)phenylamino)phthalazin-1-yl)thiophen-3-yl)methanol] was run?
**A.** 0.004 µM

**Q.** And the IC50 [2]?
**A.** 0.016 µM

**Q.** What does the source list for `COc1cnc2c(Oc3ccc(Nc4nnc(-c5cc(CF)cs5)c5ccccc45)cc3)ccnc2c1` [Example 408, 4-(4-(Fluoromethyl)thiophen-2-yl)-N-(4-(7-methoxy-1,5-naphthyridin-4-yloxy)phenyl)phthalazin-1-amine]?
**A.** IC50 [1]: 0.009 µM; IC50 [2]: 0.024 µM

**Q.** Which results are given for `Oc1cnc2c(Oc3ccc(Nc4nnc(-c5ccc(Cl)cc5)c5ccccc45)cc3)ccnc2c1` [Example 409, 8-(4-(4-(4-Chlorophenyl)phthalazin-1-ylamino)phenoxy)-1,5-naphthyridin-3-ol]?
**A.** IC50 [1]: 0.005 µM; IC50 [2]: 0.02 µM

Reference: US8557816B2, “Aurora kinase modulators and method of use” (Amgen Inc., priority 2007, dated 2013)
